Laboratory results as given in US9834542B2, “LXR modulators” (BRISTOL-MYERS SQUIBB COMPANY, priority 2013, dated 2017).

Target: T1, LXRβ (Homo sapiens, UniProt P55055)
T1 construct: Co-transfection expression plasmids, comprising full-length LXRα (pCMX-h LXRα[…] or LXRβ (pCMX-hLXRβ)); expressed in transfected cells; host or cells: CV-1 African Green Monkey Kidney Cells
T1 sequence (P55055 1-460): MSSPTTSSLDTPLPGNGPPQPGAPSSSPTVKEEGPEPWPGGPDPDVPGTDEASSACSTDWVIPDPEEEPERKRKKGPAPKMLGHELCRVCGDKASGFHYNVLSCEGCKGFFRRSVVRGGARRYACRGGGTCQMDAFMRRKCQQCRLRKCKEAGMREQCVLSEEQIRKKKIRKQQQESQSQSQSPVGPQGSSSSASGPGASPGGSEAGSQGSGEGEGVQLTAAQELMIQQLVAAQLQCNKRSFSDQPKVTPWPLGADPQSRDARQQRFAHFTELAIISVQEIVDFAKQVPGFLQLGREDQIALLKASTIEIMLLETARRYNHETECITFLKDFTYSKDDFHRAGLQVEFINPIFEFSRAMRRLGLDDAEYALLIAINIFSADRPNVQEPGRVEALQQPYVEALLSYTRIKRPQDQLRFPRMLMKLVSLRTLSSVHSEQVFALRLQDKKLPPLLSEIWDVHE
T1 sequence (P19793 1-462 partner): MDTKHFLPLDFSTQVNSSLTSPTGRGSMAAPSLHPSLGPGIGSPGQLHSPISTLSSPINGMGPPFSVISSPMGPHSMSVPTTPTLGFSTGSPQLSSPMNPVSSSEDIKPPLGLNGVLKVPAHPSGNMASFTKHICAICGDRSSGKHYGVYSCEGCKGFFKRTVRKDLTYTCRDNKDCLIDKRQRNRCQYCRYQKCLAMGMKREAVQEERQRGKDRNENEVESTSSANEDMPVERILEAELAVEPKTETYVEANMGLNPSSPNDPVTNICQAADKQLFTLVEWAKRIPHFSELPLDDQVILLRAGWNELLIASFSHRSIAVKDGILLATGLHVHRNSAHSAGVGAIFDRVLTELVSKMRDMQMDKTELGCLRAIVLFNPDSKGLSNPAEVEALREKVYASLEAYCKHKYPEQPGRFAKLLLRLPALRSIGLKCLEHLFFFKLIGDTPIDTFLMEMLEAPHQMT
Assay: Co-transfection assay (LXRE luciferase reporter), LXRβ
Type: cell-based
Conditions: for EC50: CV-1 cells transfected with pCMX-hLXRβ and LXREx1-Tk-Luciferase, 20 hours incubation; for Emax: LXRβ co-transfection, relative to high control 1-(2,4-difluorobenzyl)-2-oxo-6-(4-phenoxyphenyl)-4-(trifluoromethyl)-1,2-dihydropyridine-3-carbonitrile, read-out: % Efficacy
Method in brief: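 Luciferase output from an LXRE-Tk reporter measured after 20 h, 37 °C compound exposure of transiently transfected CV-1 cells expressing human LXRβ with endogenous RXR. EC50 fitted from 11-point half-log dose responses (mean of ≥2 runs); % efficacy versus maximal response of the reference agonist.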

Row | SMILES | EC50 [nM] | Emax [%]
1 | CCC(F)(F)c1cn(-c2ccc(-c3cc(F)c(CO)c(S(C)(=O)=O)c3)cc2-n2nncc2-c2ccc(OC(F)(F)F)cc2)c(C)n1 [Example 186, {4′-[4-(1,1-difluoropropyl)-2-methyl-1H-imidazol-1-yl]-3-fluoro-5-(methylsulfonyl)-3′-(5-{4-[(trifluoromethyl)oxy]phenyl}-1H-1,2,3-txiazol-1-yl)biphenyl-4-yl}methanol] | 168 | 81
2 | Cc1nc(C(F)(F)F)cn1-c1ccc(-c2ccc(CO)c(S(C)(=O)=O)c2)cc1-c1ocnc1Cc1ccc(Cl)cc1 [Example 635, (3′-(4-(4-chlorobenzyl)oxazol-5-yl)-4′-(2-methyl-4-(trifluoromethyl)-1H-imidazol-1-yl)-3-(methylsulfonyl)-[1,1′-biphenyl]-4-yl)methanol] | 229 | 58
3 | Cc1nc(-c2cc(-c3cccc(S(C)(=O)=O)c3)ccc2-n2cc(C(F)(F)F)nc2C)c(-c2ccc(OC(F)(F)C(F)(F)F)cc2)o1 [Example 572, 2-methyl-4-(4-(2-methyl-4-(trifluoromethyl)-1H-imidazol-1-yl)-3′-(methylsulfonyl)-[1,1′-biphenyl]-3-yl)-5-(4-(perfluoroethoxy)phenyl)oxazole] | 95 | 46
4 | Cc1nc(C(F)(F)F)cn1-c1ccc(-c2cc(F)c(CO)c(S(C)(=O)=O)c2)cc1-n1nncc1-c1ccc2c(c1)OC(F)(F)O2 [Example 52, {3′-[5-(2,2-difluoro-1,3-benzodioxol-5-yl)-1H-1,2,3-triazol-1-yl]-3-fluoro-5-(methylsulfonyl)-4′-[2-methyl-4-(trifluoromethyl)-1H-imidazol-1-yl]biphenyl-4-yl}methanol] | 172 | 82
5 | Cc1nc(C(F)(F)F)cn1-c1ccc(-c2cccc(S(C)(=O)=O)c2)cc1-c1nc(C(F)(F)F)cn1-c1ccc(Cl)cc1 [Example 644, 1-(4-chlorophenyl)-2-(4-(2-methyl-4-(trifluoromethyl)-1H-imidazol-1-yl)-3′-(methylsulfonyl)biphenyl-3-yl)-4-(trifluoromethyl)-1H-imidazole] | 408 | 37
6 | Cc1ccc(C(C)c2cnnn2-c2cc(-c3cccc(S(=O)(=O)N(C)C)c3)ccc2-n2cc(C(F)(F)F)nc2C)cc1 (stereo not shown) [Example 105, N,N-dimethyl-3′-{5-[1-(4-methylphenyl)ethyl]-1H-1,2,3-triazol-1-yl}-4′-[2-methyl-4-(trifluoromethyl)-1H-imidazol-1-yl]biphenyl-3-sulfonamide] | 227 | 70
7 | Cc1nc(C(F)(F)F)cn1-c1ccc(-c2cc(F)c(CO)c(S(C)(=O)=O)c2)cc1-n1nncc1-c1ccc(Cl)cc1Cl [Example 67, {3′-[5-(2,4-dichlorophenyl)-1H-1,2,3-triazol-1-yl]-3-fluoro-5-(methylsulfonyl)-4′-[2-methyl-4-(trifluoromcehyl)-1H-imidazol-1-yl]biphenyl-4-yl}methanol] | 127 | 81
8 | Cc1nc(C(C)(F)F)cn1-c1ccc(-c2cc(F)c(CO)c(S(C)(=O)=O)c2)cc1-n1nncc1-c1ccc(OC(F)(F)F)cc1 [Example 174, {4′-[4-(1,1-difluoroethyl)-2-methyl-1H-imidazol-1-yl]-3-fluoro-5-(methylsulfonyl)-3′-(5-{4-[(trifluoromethyl)oxy]phenyl}-1H-1,2,3-triazol-1-yl)biphenyl-4-yl}methanol] | 467 | 88
9 | Cc1nc(C(F)(F)F)cn1-c1ccc(-c2cccc(S(C)(=O)=O)c2)cc1-n1nncc1C(C)(C)c1ccc(Cl)cc1 [Example 222, 5-(2-(4-chlorophenyl)propan-2-yl)-1-(4-(2-methyl-4-(trifluoromethyl)-1H-imidazol-1-yl)-3′-(methylsulfonyl)-[1,1′-biphenyl]-3-yl)-1H-1,2,3-triazole] | 1850 | 43
10 | Cc1nc(-c2ccc(OC(F)F)cc2)c(-c2cc(-c3cc(F)c(CO)c(S(C)(=O)=O)c3)ccc2-n2cc(C(F)(F)F)nc2C)o1 [Example 624, (3′-(4-(4-(difluoromethoxy)phenyl)-2-methyloxazol-5-yl)-3-fluoro-4′-(2-methyl-4-(trifluoromethyl)-1H-imidazol-1-yl)-5-(methylsulfonyl)-[1,1′-biphenyl]-4-yl)methanol] | 42 | 112
11 | Cc1nc(C(F)(F)F)cn1-c1ccc(-c2cccc(S(C)(=O)=O)c2)cc1-n1nncc1-c1ccc(Cl)cc1 [Example 66, 5-(4-chlorophenyl)-1-{3′-(methylsulfonyl)-4-[2-methyl-4-(trifluoromethyl)-1H-imidazol-1-yl]biphenyl-3-yl}-1H-1,2,3-triazole] | 306 | 98
12 | CCCc1nc(-c2cc(-c3cccc(S(C)(=O)=O)c3)ccc2-n2cc(C(F)(F)F)nc2C)c(-c2ccc(OC(F)(F)F)cc2)o1 [Example 520, 4-(4-(2-methyl-4-(trifluoromethyl)-1H-imidazol-1-yl)-3′-(methylsulfonyl)-[1,1′-biphenyl]-3-yl)-2-propyl-5-(4-(trifluoromethoxy)phenyl)oxazole] | 22 | 86
13 | CNS(=O)(=O)c1cccc(-c2ccc(-n3cc(C(F)F)nc3C)c(-c3cnnn3Cc3ccc(Cl)cc3)c2)c1 [Example 246, 3′-(1-(4-chlorobenzyl)-1H-1,2,3-triazol-5-yl)-4′-(4-(difluoromethyl)-2-methyl-1H-imidazol-1-yl)-N-methyl-[1,1′-biphenyl]-3-sulfonamide] | 475 | 91
14 | CCS(=O)(=O)c1cc(-c2ccc(-n3cc(C(F)(F)F)nc3C)c(-n3nncc3-c3ccc(OC(F)(F)F)cc3)c2)cc(F)c1CO [Example 92, [3-(ethylsulfonyl)-5-fluoro-4′-[2-methyl-4-(trifluoromethyl)-1H-imidazol-1-yl]-3′-(5-{4-[(trifluoromethyl)oxy]phenyl}-1H-1,2,3-triazol-1-yl)biphenyl-4-yl]methanol] | 502 | 93
15 | Cc1nc(-c2ccc(OC(F)(F)F)cc2)c(-c2cc(-c3cccc([S+](C)[O-])c3)ccc2-n2cc(C(F)(F)F)nc2C)o1 (stereo not shown) [Example 627, 2-methyl-5-(4-(2-methyl-4-(trifluoromethyl)-1H-imidazol-1-yl)-3′-(methylsulfinyl)-[1,1′-biphenyl]-3-yl)-4-(4-(trifluoromethoxy)phenyl)oxazole] | 269 | 93
16 | Cc1nc(C(F)(F)F)cn1-c1ccc(-c2cccc(S(=O)(=O)N(C)C)c2)cc1-n1nncc1-c1ccc(OC(F)(F)F)cc1 [Example 214, N,N-dimethyl-4′-(2-methyl-4-(trifluoromethyl)-1H-imidazol-1-yl)-3′-(5-(4-(trifluoromethoxy)phenyl)-1H-1,2,3-triazol-1-yl)-[1,1′-biphenyl]-3-sulfonamide] | 210 | 87
17 | Cc1nc(-c2cc(-c3cccc(S(C)(=O)=O)c3)ccc2-n2cc(C(F)(F)F)nc2C)c(-c2ccc(Cl)c(Cl)c2)o1 [Example 508, 5-(3,4-dichlorophenyl)-2-methyl-4-(4-(2-methyl-4-(trifluoromethyl)-1H-imidazol-1-yl)-3′-(methylsulfonyl)biphenyl-3-yl)oxazole] | 82 | 68
18 | Cc1nc(-c2cc(-c3ccc(CO)c(S(C)(=O)=O)c3)ccc2-n2cc(C(F)(F)F)nc2C)c(-c2cc(F)c(OC(F)F)c(F)c2)o1 [Example 469, (3′-(5-(4-(difluoromethoxy)-3,5-difluorophenyl)-2-methyloxazol-4-yl)-4′-(2-methyl-4-(trifluoromethyl)-1H-imidazol-1-yl)-3-(methylsulfonyl)biphenyl-4-yl)methanol] | 89 | 70
19 | Cc1nc(-c2ccc(Cl)cc2)c(-c2cc(-c3cccc(S(C)(=O)=O)c3)ccc2-n2cc(C(F)(F)F)nc2C)o1 [Example 605, 4-(4-chlorophenyl)-2-methyl-5-(4-(2-methyl-4-(trifluoromethyl)-1H-imidazol-1-yl)-3′-(methylsulfonyl)-[1,1′-biphenyl]-3-yl)oxazole] | 91 | 89
20 | Cc1nc(-c2cc(-c3ccc(CO)c(S(C)(=O)=O)c3)ccc2-n2cc(C(F)(F)F)nc2C)c(-c2ccc(OC(F)F)cc2)o1 [Example 497, (3′-(5-(4-(difluoromethoxy)phenyl)-2-methyloxazol-4-yl)-4′-(2-methyl-4-(trifluoromethyl)-1H-imidazol-1-yl)-3-(methylsulfonyl)biphenyl-4-yl)methanol] | 88 | 124
